Each molecule was assayed against T1, HSP90α protein (N-terminal) (Homo sapiens, UniProt P07900) (assay: HSP90α-binding fluorescent polarization (FP) assay, competition with BODIPY-labeled RNK04010). Details: probe RNK04010 (BODIPY-labeled) 5 nM, 25° C. 300 min.
T1 construct: purchased BPS Bioscience #50298
Experimental: Binding of test compounds to HSP90α protein was measured by fluorescent polarization (FP) using the HSP90α (N-terminal) Assay Kit (BPS Bioscience, #50298), following the manufacturer's instructions, except as noted. Fluorescently labeled HSP90-binding compounds, either the provided FITC-geldanamycin (5 nM final concentration) or RNK04010, a triazolone-based HSP90-binding small molecule labeled with BODIPY through a piperizine-phenyl linker (5 nM final concentration) were employed. A 2.5-fold serial dilution of each test compound ranging from 20 μM to 5.2 nM was assayed for binding to HSP90α. After the final step of adding HSP90α protein to each assay well, plates were mixed by brief shaking, incubated at 25° C. for 120 min for FITC-geldanamycin or 300 min for RNK04010, and fluorescence was measured using a PerkinElmer EnVision Plate Reader.
HSP90α-binding fluorescent polarization (FP) assays measuring competition with the fluorescently labeled HSP90 binders, FITC-geldanamycin or RNK04010 (BODIPY-labeled), were applied to assess the binding capabilities of CHAMP molecules to HSP90.

SMILES	IC50
Cc1sc2c(c1C)C(c1ccc(Cl)cc1)=N[C@@H](CC(=O)N[C@H](C)c1cccc(CN3CCC(Cc4ccc(-n5c(O)nnc5-c5cc(C(C)C)c(O)cc5O)cc4)CC3)c1)c1nnc(C)n1-2 [Compound 56]	< 100 nM
Cc1sc2c(c1C)C(c1ccc(Cl)cc1)=N[C@@H](CC(=O)N1CCC(CN3CCN(Cc4ccc(-n5c(C(=O)NCCN6CCCCC6)nnc5-c5cc(C(C)C)c(O)cc5O)cc4)CC3)CC1)c1nnc(C)n1-2 [Compound 76]	< 100 nM
Cc1cc(C(=O)N2Cc3ccc(CN4CCN(C(=O)C[C@@H]5N=C(c6ccc(Cl)cc6)c6c(sc(C)c6C)-n6c(C)nnc65)CC4)c(F)c3C2)c(O)cc1O [Compound 99]	> 1000 nM
CCOc1cc(N2CCC(C(=O)NCc3ccc(-n4c(O)nnc4-c4cc(C(C)C)c(O)cc4O)cc3C(F)(F)F)CC2)ccc1Nc1ncc2c(n1)N(C)c1ccccc1C(=O)N2C [Compound 122]	100 to 1000 nM
CCOc1cc(N2CCC(C(=O)NCc3ccc(CN4CCC(Cc5ccc(-n6c(C(=O)NC(C)C)nnc6-c6cc(C(C)C)c(O)cc6O)cc5)CC4)cc3)CC2)ccc1Nc1ncc2c(n1)N(C)c1ccccc1C(=O)N2C [Compound 130]	100 to 1000 nM
COc1cccc(-c2cc(C(=O)Nc3ccc(-c4ccc(OC5CCN(C(=O)C[C@@H]6N=C(c7ccc(Cl)cc7)c7c(sc(C)c7C)-n7c(C)nnc76)CC5)cc4OCCN(C)C)cc3)ccc2OC)c1 [Compound 84]	> 1000 nM
CCOc1cc(N2CCC(C(=O)NCc3ccc(-n4c(O)nnc4-c4cc(C)c(O)cc4O)cc3)CC2)ccc1Nc1ncc2c(n1)N(C)c1ccccc1C(=O)N2C [Compound 120]	100 to 1000 nM
Cc1sc2c(c1C)C(c1ccc(Cl)cc1)=N[C@@H](CC(=O)N1CCN(Cc3ccc(-n4c(O)nnc4-c4cc(C(C)C)c(O)cc4O)cc3)[C@@H](C)C1)c1nnc(C)n1-2 [Compound 107]	100 to 1000 nM
CCOc1cc(N2CCC(C(=O)NCCOCCNC(=O)O[C@H]3CC[C@H](Cc4cc(-n5nc(C)c6c5CC(C)(C)CC6=O)ccc4C(N)=O)CC3)CC2)ccc1N(CC)c1ncc2c(n1)N(C)c1ccccc1C(=O)N2C [Compound 151]	> 1000 nM
CCOc1cc(N2CCC(C(=O)N3CCC(COc4ccc(Nc5cc(-n6nc(C(F)(F)F)c7c6CC(C)(C)CC7=O)ccc5C(N)=O)cc4)CC3)CC2)ccc1Nc1ncc2c(n1)N(C)c1ccccc1C(=O)N2C [Compound 159]	> 1000 nM
CCOc1cc(N2CCC(C(=O)NCCCNC(=O)O[C@H]3CC[C@H](Nc4cc(-n5nc(C(F)(F)F)c6c5CC(C)(C)CC6=O)ccc4C(N)=O)CC3)CC2)ccc1Nc1ncc2c(n1)N(C)c1ccccc1C(=O)N2C [Compound 150]	> 1000 nM
COc1cccc(-c2cc(C(=O)Nc3ccc(-c4ccc(OC5CCN(C(=O)CNC(=O)N[C@@H]6N=C(c7ccc(Cl)cc7)c7c(sc(C)c7C)-n7c(C)nnc76)CC5)cc4O)cc3)ccc2OC)c1 [Compound 132]	> 1000 nM
COc1cccc(-c2cc(C(=O)Nc3ccc(-c4ccc(OC5CCN(C(=O)C[C@@H]6N=C(c7ccc(Cl)cc7)c7c(sc(C)c7C)-n7c(C)nnc76)CC5)cc4O)cc3)ccc2OC)c1 [Compound 131]	> 1000 nM
Cc1sc2c(c1C)C(c1ccc(Cl)cc1)=N[C@@H](CC(=O)N(C)[C@@H](C)c1ccc(CN3CCC(Cc4ccc(-n5c(O)nnc5-c5cc(C(C)C)c(O)cc5O)cc4)CC3)cc1)c1nnc(C)n1-2 [Compound 63]	100 to 1000 nM
CCN(CC)CCNC(=O)c1nnc(-c2cc(C(C)C)c(O)cc2O)n1-c1ccc(CN2CCN(CC3CCN(C(=O)C[C@@H]4N=C(c5ccc(Cl)cc5)c5c(sc(C)c5C)-n5c(C)nnc54)CC3)CC2)cc1 [Compound 90]	< 100 nM
Cc1sc2c(c1C)C(c1ccc(Cl)cc1)=N[C@@H](CC(=O)N1CCC(CN3CCN(Cc4ccc(-n5c(C(=O)NC(C)C)nnc5-c5ccc(O)cc5O)cc4)CC3)CC1)c1nnc(C)n1-2 [Compound 91]	< 100 nM

More lines, now with the values ahead:

IC50	SMILES
100 to 1000 nM	Cc1sc2c(c1C)C(c1ccc(Cl)cc1)=N[C@@H](CC(=O)N1CCC(Cc3ccc(CN(C)Cc4ccc(-n5c(C(=O)NCC(F)(F)F)nnc5-c5cc(C(C)C)c(O)cc5O)cc4)cn3)CC1)c1nnc(C)n1-2 [Compound 109]
> 1000 nM	Cc1sc2c(c1C)C(c1ccc(Cl)cc1)=N[C@@H](CC(=O)NCCOCCNC(=O)O[C@H]1CC[C@H](Nc3cc(-n4nc(C(F)(F)F)c5c4CC(C)(C)CC5=O)ccc3C#N)CC1)c1nnc(C)n1-2 [Compound 154]
> 1000 nM	CCOc1cc(N2CCC(C(=O)N3CCN(C(=O)O[C@H]4CC[C@H](Nc5cc(-n6nc(C(F)(F)F)c7c6CC(C)(C)CC7=O)ccc5C(N)=O)CC4)CC3)CC2)ccc1Nc1ncc2c(n1)N(C)c1ccccc1C(=O)N2C [Compound 152]
< 100 nM	CCCc1cc(-c2nnc(C(=O)NCCN3CCCCC3)n2-c2ccc(CN3CCN(CC4CCN(C(=O)C[C@@H]5N=C(c6ccc(Cl)cc6)c6c(sc(C)c6C)-n6c(C)nnc65)CC4)CC3)cc2)c(O)cc1O [Compound 92]
< 100 nM	CCc1cc(-c2nnc(C(=O)NC3(C)CC3)n2-c2ccc(CN3CCN(CC4CCN(C(=O)C[C@@H]5N=C(c6ccc(Cl)cc6)c6c(sc(C)c6C)-n6c(C)nnc65)CC4)CC3)cc2)c(O)cc1O [Compound 104]
> 1000 nM	COc1cc(O)c(C(C)C)cc1-c1nnc(O)n1-c1ccc(CN2CCN(CC3CCN(C(=O)C[C@@H]4N=C(c5ccc(Cl)cc5)c5c(sc(C)c5C)-n5c(C)nnc54)CC3)CC2)cc1 [Compound 108]
> 1000 nM	CCOc1cc(N2CCC(C(=O)NCc3ccc(-n4c(O)nnc4-c4ccc(O)cc4O)cc3)CC2)ccc1Nc1ncc2c(n1)N(C)c1ccccc1C(=O)N2C [Compound 119]
< 100 nM	CCc1cc(-c2nnc(C(=O)NC(C)C)n2-c2ccc(CN3CCN(CC4CCN(C(=O)C[C@@H]5N=C(c6ccc(Cl)cc6)c6c(sc(C)c6C)-n6c(C)nnc65)CC4)CC3)cc2)c(O)cc1O [Compound 74]
100 to 1000 nM	CCN(Cc1ccc(OCCCNC(=O)C[C@@H]2N=C(c3ccc(Cl)cc3)c3c(sc(C)c3C)-n3c(C)nnc32)cc1)Cc1ccc(-n2c(C(=O)NCC(F)(F)F)nnc2-c2cc(C(C)C)c(O)cc2O)cc1 [Compound 72]
100 to 1000 nM	CCc1cc(-c2nnc(C(=O)NC(CC)CC)n2-c2ccc(CN3CCN(CC4CCN(C(=O)C[C@@H]5N=C(c6ccc(Cl)cc6)c6c(sc(C)c6C)-n6c(C)nnc65)CC4)CC3)cc2)c(O)cc1O [Compound 103]
100 to 1000 nM	Cc1sc2c(c1C)C(c1ccc(Cl)cc1)=N[C@@H](CC(=O)N1CCN(Cc3ccc4c(c3F)CN(C(=O)c3cc(C(C)C)c(O)cc3O)C4)CC1)c1nnc(C)n1-2 [Compound 100]
100 to 1000 nM	CCOc1cc(N2CCC(C(=O)N3CCN(CCOc4ccc(Nc5cc(-n6nc(C(F)(F)F)c7c6CC(C)(C)CC7=O)ccc5C(N)=O)cc4)CC3)CC2)ccc1Nc1ncc2c(n1)N(C)c1ccccc1C(=O)N2C [Compound 149]
> 1000 nM	Cc1sc2c(c1C)C(c1ccc(Cl)cc1)=N[C@@H](CC(=O)NCCOCCN[C@@H](C)C(=O)N[C@H](C(=O)N1CCC[C@H]1C(=O)Nc1snnc1-c1ccccc1)C1CCCCC1)c1nnc(C)n1-2 [Compound 167]
100 to 1000 nM	CCc1cc(-c2nnc(C(=O)NC(C)C(F)(F)F)n2-c2ccc(CN3CCN(CC4CCN(C(=O)C[C@@H]5N=C(c6ccc(Cl)cc6)c6c(sc(C)c6C)-n6c(C)nnc65)CC4)CC3)cc2)c(O)cc1O (stereo partly shown) [Compound 105]
< 100 nM	CCc1cc(-c2nnc(C(=O)NCCN3CCCCC3)n2-c2ccc(CN3CCN(CC4CCN(C(=O)C[C@@H]5N=C(c6ccc(Cl)cc6)c6c(sc(C)c6C)-n6c(C)nnc65)CC4)CC3)cc2)c(O)cc1O [Compound 82]

Reference: patent US20230391792A1, “METHODS AND COMPOSITIONS FOR TARGETED PROTEIN DEGRADATION” (Ranok Therapeutics (Hangzhou) Co. Ltd., priority 2020, published 2023)
